Measurements from publication PMC12787479, “Steam Explosion as a Green Pretreatment Strategy to Enhance Total Phenolics Release and Biological Activities in Potentilla discolor Bunge Stems” (Molecules, 2025).
Marks after values point to notes of the source that are not given here.

Key:
Assay type in all cases: biochemical
[1] = DPPH free radical scavenging assay; conditions: extract obtained under optimized extraction conditions; 25 °C, 30 min, 517 nm
Experimental: DPPH ethanol solution (0.12 μmol/mL, 0.1 mL) was mixed with 0.1 mL different concentrations of PDB stem solutions (10, 25, 50, 75, and 100 μg/mL). Incubation was carried out in a dark environment at 25 °C for 30 min. […] The absorbance values were measured at 517 nm using an enzyme meter. All experiments were performed in triplicate, and results are expressed as mean ± standard deviation (SD). The calculation formula was as follows.(3) Radical scavenging rate %=[…]×100% where Ac was the absorbance of blank group; As was the absorbance of PDB stem group, respectively. […] All data were represented as mean ± standard deviation (SD) and the significant statistical differences was determined by a one-way ANOVA test using SPSS version 22.0. Different lowercase letters were regarded as significant differences (p < 0.05).

[2] = FRAP reduction assay (ferric reducing antioxidant power); conditions: absorbance at 700 nm at a concentration of 600 μg/mL
Experimental: Extraction solutions of PDB stems at 0.4, 0.6, 0.8, 1.0, or 1.2 mg/mL (0.1 mL each) were mixed with an equal volume (0.1 mL) of 30 μmol/mL K3[Fe(CN)6] solution (1:1, v/v) and incubated at 50 °C for 20 min. Then, 0.2 mL of 10% (w/v) trichloroacetic acid (TCA) solution was added, and the resulting mixture was defined as solution A. Finally, 0.1 mL of solution A was mixed with 0.1 mL of 3.4 μmol/mL FeCl3 solution, and the absorbance of the mixture was measured at 700 nm. […] All experiments were performed in triplicate, and results are expressed as mean ± SD.

[3] = ABTS free radical scavenging assay; conditions: extract obtained under optimized extraction conditions; 30 min dark, 734 nm
Experimental: The solution was then diluted fivefold before use. […] For standard curve construction, ascorbic acid solutions at concentrations of 2, 4, 8, 15, 25, and 50 μg/mL were treated in the same manner. All experiments were performed in triplicate, and results were expressed as mean ± SD. The absorbance values were measured at 734 nm, and the scavenging rate was calculated using Equation (1). […] All data were represented as mean ± standard deviation (SD) and the significant statistical differences was determined by a one-way ANOVA test using SPSS version 22.0. Different lowercase letters were regarded as significant differences (p < 0.05).

DPPH·IC50 [1]: 3.47 ± 0.02 ^a μg/mL
ABTS·IC50 [3]: 20.71 ± 0.42 ^a μg/mL
Structure (SMILES): O=C1O[C@H]([C@@H](O)CO)C(O)=C1O [Ascorbic acid]
FRAP (A700, 600 μg/mL) [2]: 3.17 ± 0.05 ^a
FRAP (A700, 600 μg/mL) ([2]; listed as ascorbic acid): 3.17 ± 0.05
